Measurements reported in patent publication US10836769B2, “Substituted pyrrolizine compounds and uses thereof” (Gilead Sciences, Inc., priority 2018, dated 2020).
Converted amounts (≈) assume the structure as drawn. Where two headings read alike, the source gives them in different places.

Key:
HBV = HBV DNA Quantification Assay; type: cell-based; settings: Hepatitis B virus, 120 h; HepG2 cell line overexpressing NTCP infected with HBV AD38 viral particles; HBV DNA in culture supernatant after 5 days; geometric mean of a minimum of four determinations; read-out: EC50
Summary of the method: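 NTCP-overexpressing HepG2 cells were infected with AD38 virus at 4000 genome equivalents/cell for 4 days, then reseeded with serially diluted compound in 2% FBS/1% DMSO medium for 5 days. Supernatant HBV DNA was measured by QuantiGene 2.0 branched-DNA luminescence. EC50 came from four-parameter fits, as geometric means of ≥4 determinations.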

Kinetic Solubility = type: physicochemical; settings: kinetic from dmso stock, 0.2 to 100 μM, BD Gentest Solubility Scanner
Method: The 10 mM DMSO stock solution of the test compound is serially diluted into a 96-well “DMSO stock dilution plate”. Then Pipette 2 μL from the DMSO stock dilution plate into the “Sample plate” and dilute with 198 µL of the assay media to generate the final concentrations of the test compound ranging from 0.2 to 100 μM. The “Sample plate” is run on a BD Gentest Solubility Scanner.

[1] = aqueous buffer, pH = 7, read-out: Kinetic Solubility at pH = 7
[2] = simulated gastric fluid, pH = 1, read-out: Kinetic Solubility at pH = 1

Row | SMILES | EC50 (HBV) [nM] | solubility kinetic (Kinetic Solubility; [1]) [µM] | solubility kinetic (Kinetic Solubility; [2]) [µM]
1 | CNC(=O)C1(NC(=O)C(=O)c2c(C)c(C(=O)Nc3cc(F)c(F)c(F)c3)c3n2CCC3)CC(F)(F)C1 [Example 42, 5-(2-((3,3-difluoro-1-(methylcarbamoyl)cyclobutyl)amino)-2-oxoacetyl)-6-methyl-N-(3,4,5-trifluorophenyl)-2,3-dihydro-1H-pyrrolizine-7-carboxamide] | 12.7 | 29.6 (≈ 15.2 µg/mL) | 37.5 (≈ 19.2 µg/mL)
2 | Cc1c(C(=O)Nc2ccc(F)c(F)c2)c2n(c1C(=O)C(=O)NC1(c3nncs3)CC1)CCC2 [Example 43, 5-(2-((1-(1,3,4-thiadiazol-2-yl)cyclopropyl)amino)-2-oxoacetyl)-N-(3,4-difluorophenyl)-6-methyl-2,3-dihydro-1H-pyrrolizine-7-carboxamide] | 12.8 | 72.8 (≈ 34.3 µg/mL) | 77.7 (≈ 36.6 µg/mL)
3 | Cc1c(C(=O)Nc2ccc(F)c(F)c2)c2n(c1C(=O)C(=O)NC1(C(N)=O)CC(F)(F)C1)CCC2 [Example 44, 5-(2-((1-carbamoyl-3,3-difluorocyclobutyl)amino)-2-oxoacetyl)-N-(3,4-difluorophenyl)-6-methyl-2,3-dihydro-1H-pyrrolizine-7-carboxamide] | 15.2 | 49.8 (≈ 23.9 µg/mL) | 90.3 (≈ 43.4 µg/mL)
4 | CNC(=O)C1(NC(=O)C(=O)c2c(C)c(C(=O)Nc3ccc(F)cc3)c3n2CCC3)CC(F)(F)C1 [Example 45, 5-(2-((3,3-difluoro-1-(methylcarbamoyl)cyclobutyl)amino)-2-oxoacetyl)-N-(4-fluorophenyl)-6-methyl-2,3-dihydro-1H-pyrrolizine-7-carboxamide] | 55.9 | 95.3 (≈ 45.4 µg/mL) | 99.9 (≈ 47.6 µg/mL)
5 | CNC(=O)C1(NC(=O)C(=O)c2c(C)c(C(=O)Nc3ccc(F)c(F)c3)c3n2CCC3)CC(F)(F)C1 [Example 46] | 22.5 | 88.5 (≈ 43.8 µg/mL) | 84.4 (≈ 41.7 µg/mL)
